# US20250057963A1, “DISCOVERY OF PIPERLONGUMINE AS A NOVEL E3 LIGASE LIGAND” (University of Florida Research Foundation, Incorporated, priority 2021, published 2025)
# Entries after “also recorded” stand apart in the source; their conditions may differ.
# Key:
# CDK9 [1] = biological target: T1, CDK9 (Homo sapiens, UniProt P50750); experiment: CDK9 degradation and c-Myc/MCL-1 downregulation in LNCaP cells (immunoblot); type: cell-based; design: endogenous in cells; host or cells: MOLT4, 293T, K562, NCI-H1299, LNCaP
# Experimental: Human T-ALL MOLT4 (Cat. No. CRL-1582), K562 (Cat. No. CCL-243), NCI-H1299 (Cat. No. CRL-5803), NCI-H2228 (Cat. No. CRL-5935), LNCaP (Cat. No. CRL-1740), 22RV1 (Cat. No. CRL-2505), PC3 (Cat. No. CRL-1435), DU145 (Cat. No. HTB-81), and epithelial kidney HEK 293T (293T, Cat. No. ACS-4500) cell lines were recently purchased from American Type Culture Collection (ATCC, Manassas, VA, USA). MOLT4, K562, NCI—H-1299, NCI-H2228, LNCap, and 22RV 1 cell lines were cultured in RPMI 1640 medium (Cat No. 22400-089, Thermo Fisher Scientific, Waltham, MA, USA) supplemented with 10% (v/v) heat-inactivated fetal bovine serum (FBS, Cat. No. S11150H, Atlanta Biologicals, Flowery Branch, GA, USA), 100 U/mL penicillin and 100 pig/mL streptomycin (Pen-Strep, Cat. No. 15140122, Thermo Fisher Scientific). PC3 cells were cultured in complete F—12K medium (Kaighn's modification of Ham's F-12 medium, Cat. No. 30-2004, ATCC) supplemented with 10% (v/v) heat-inactivated FBS, 100 U/mL penicillin, and 100 μg/mL streptomycin. DU145 cells were cultured in complete Eagle's Minimum Essential Medium (EMEM, Cat. No. 30-2003, ATCC) supplemented with 10% (v/v) heat-inactivated FBS, 100 U/mL penicillin, and 100 μg/mL streptomycin. […]
# (§1) Immunoblot data were quantified using the ImageJ (v 1.53a) software from NIH. […]
# [2] = biological target: T2, CDK9: 955: KEAP1 ternary complex (Homo sapiens, UniProt P50750+Q14145); experiment: NanoBRET ternary complex formation assay in live 293T cells; type: cell-based; conditions: HiBit-CDK9 and Halo-KEAP1 in 293T cells, 6 h
# T2 construct: expressed in transfected cells; host or cells: 293T
# Text: CMV HiBit (Cat. No. CS1956B03) was purchased from Promega. Plasmid HaloTag-KEAP1 (a gift from Yimon Aye, plasmid #58240) was purchased from Addgene. HiBit-CDK9 were constructed through the Gibson assembly method. The primer pair (5′-[…]atggcaaagcagtacgactcggtggag-3′ and 5′-[…]gaagacgcgctcaaactccgtctggt-3′) and the template HA-CDK9 (a gift from Andrew Rice, plasmid #28102) was used to clone the CDK9 fragment. The primer pair (5′-accagacggagtttgagcgcgtcttc[…]-3′ and 5′-ctccaccgagtcgtactgcttcgccat[…]-3′) and pBit3.1—N(Cat. No. N2361, Promega) were used to clone the vector-containing fragment. The PCR fragments were assembled using NEBuilder® HiFi DNAAssembly Master Mix. DNA sequences in all these plasmids were authenticated by automatic sequencing. […] After treatment, NanoBRET Nano-Glo Substrate (Cat. No. N1662, Promega) was added into the medium, and the contents were mixed by shaking the plate for 30 s before measuring donor and acceptor signals on Biotek plate reader. Dual-filtered luminescence was collected with a 450/50 nm bandpass filter (donor, NanoBiT-CDK9 protein) and a 610-nm longpass filter (acceptor, HaloTag NanoBRET ligand) using an integration time of 0.5 s. mBRET ratios were calculated following the NanoBRET™ Nano-Glo® Detection System (Cat. No. N1662, Promega).
# CDK9 [3] = biological target: T1, CDK9; experiment: CDK9 degradation in 293T and K562 cells (immunoblot); type: cell-based; design: endogenous in cells; host or cells: MOLT4, 293T, K562, NCI-H1299, LNCaP
# Experimental: Human T-ALL MOLT4 (Cat. No. CRL-1582), K562 (Cat. No. CCL-243), NCI-H1299 (Cat. No. CRL-5803), NCI-H2228 (Cat. No. CRL-5935), LNCaP (Cat. No. CRL-1740), 22RV1 (Cat. No. CRL-2505), PC3 (Cat. No. CRL-1435), DU145 (Cat. No. HTB-81), and epithelial kidney HEK 293T (293T, Cat. No. ACS-4500) cell lines were recently purchased from American Type Culture Collection (ATCC, Manassas, VA, USA). MOLT4, K562, NCI—H-1299, NCI-H2228, LNCap, and 22RV 1 cell lines were cultured in RPMI 1640 medium (Cat No. 22400-089, Thermo Fisher Scientific, Waltham, MA, USA) supplemented with 10% (v/v) heat-inactivated fetal bovine serum (FBS, Cat. No. S11150H, Atlanta Biologicals, Flowery Branch, GA, USA), 100 U/mL penicillin and 100 pig/mL streptomycin (Pen-Strep, Cat. No. 15140122, Thermo Fisher Scientific). PC3 cells were cultured in complete F—12K medium (Kaighn's modification of Ham's F-12 medium, Cat. No. 30-2004, ATCC) supplemented with 10% (v/v) heat-inactivated FBS, 100 U/mL penicillin, and 100 μg/mL streptomycin. DU145 cells were cultured in complete Eagle's Minimum Essential Medium (EMEM, Cat. No. 30-2003, ATCC) supplemented with 10% (v/v) heat-inactivated FBS, 100 U/mL penicillin, and 100 μg/mL streptomycin. 293T cells were cultured in complete Dulbecco's modified Eagle medium (DMEM, Cat. No. 12430054, Thermo Fisher Scientific) with 10% (v/v) heat-inactivated FBS, 100 U/mL penicillin, and 100 μg/mL streptomycin. All the cell lines were maintained in a humidified incubator at 37° C. and 5% CO2.
# Cells were collected and lysed in RIPA lysis buffer (Cat. #BP-115DG, Boston Bio Products, Ashland, MA, USA) supplemented with protease and phosphatase inhibitor cocktails (Cat. #PPC1010, Sigma-Aldrich, St. Louis, MO, USA). Protein samples were made and immunoblotting was performed as described previously (Khan et al., 2019; Lv et al., 2021). […]
# as §1
# PARP = PARP cleavage (apoptosis indicator) in MOLT4 cells; type: cell-based, Human; conditions: 6 h
# Experimental: Cells were collected and lysed in RIPA lysis buffer (Cat. #BP-115DG, Boston Bio Products, Ashland, MA, USA) supplemented with protease and phosphatase inhibitor cocktails (Cat. #PPC1010, Sigma-Aldrich, St. Louis, MO, USA). Protein samples were made and immunoblotting was performed as described previously (Khan et al., 2019; Lv et al., 2021). Antibodies purchased from Cell Signaling Technologies (CST) and the dilutions are as follows: Biotin (Cat. No. 5571S, 1:1000), PARP (Cat. No. 9542S, 1:1000), c-Myc (Cat. No. 5605S, 1:1000), MCL1 (Cat. No. 5453S, 1:1000), and ALK (Cat. No. 3791S, 1:1000). KEAP1 antibody was purchased from Proteintech (Cat. No. 10503-2-AP, 1:1000). CDK9 antibody was purchased from Santa Cruz (Cat. No. sc-13130, 1:500). V5-tag antibody was purchased from Bethyl (Cat. No. A190-120P, 1:1000). j-actin antibody was purchased from MP Biomedicals (Cat. No. 8691001, 1:20 000).
# T1 sequence (P50750 whole entry): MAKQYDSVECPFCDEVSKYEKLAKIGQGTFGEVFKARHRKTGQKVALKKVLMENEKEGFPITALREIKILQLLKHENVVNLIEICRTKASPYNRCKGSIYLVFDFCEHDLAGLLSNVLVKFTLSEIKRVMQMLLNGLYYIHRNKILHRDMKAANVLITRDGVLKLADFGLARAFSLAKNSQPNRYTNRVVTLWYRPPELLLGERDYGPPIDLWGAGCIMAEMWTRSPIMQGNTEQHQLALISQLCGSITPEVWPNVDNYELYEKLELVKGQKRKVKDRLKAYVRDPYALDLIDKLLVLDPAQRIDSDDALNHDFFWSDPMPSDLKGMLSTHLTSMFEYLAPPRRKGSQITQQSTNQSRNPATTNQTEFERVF
# T2 sequence (P50750 whole entry): as above
# T2 sequence (Q14145 whole entry): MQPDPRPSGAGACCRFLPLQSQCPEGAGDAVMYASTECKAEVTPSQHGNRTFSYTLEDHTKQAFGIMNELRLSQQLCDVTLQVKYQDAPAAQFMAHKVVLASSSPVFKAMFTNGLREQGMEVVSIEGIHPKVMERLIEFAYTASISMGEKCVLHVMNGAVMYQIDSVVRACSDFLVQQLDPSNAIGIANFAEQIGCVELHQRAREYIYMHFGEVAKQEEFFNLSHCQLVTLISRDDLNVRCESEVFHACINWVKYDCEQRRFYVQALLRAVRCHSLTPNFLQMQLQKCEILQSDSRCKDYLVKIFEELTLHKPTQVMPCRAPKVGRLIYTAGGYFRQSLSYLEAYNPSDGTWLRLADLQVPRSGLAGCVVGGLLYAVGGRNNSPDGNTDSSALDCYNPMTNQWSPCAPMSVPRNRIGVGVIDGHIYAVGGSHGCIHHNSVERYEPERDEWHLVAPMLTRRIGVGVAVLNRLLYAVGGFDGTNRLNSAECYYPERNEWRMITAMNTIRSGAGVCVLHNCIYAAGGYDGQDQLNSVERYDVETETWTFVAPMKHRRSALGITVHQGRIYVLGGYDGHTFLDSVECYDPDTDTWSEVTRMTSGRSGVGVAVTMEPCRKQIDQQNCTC
smiles,measurement,setting,value
"COc1cc(/C=C/C(=O)N2CCC=CC2=O)cc(OC)c1OCCN1CCN(C(=O)CN2CCC(C(=O)Nc3ncc(SCc4ncc(C(C)(C)C)o4)s3)CC2)CC1 [compound 955, (E)-N-(5-(((5-(tert-butyl)oxazol-2-yl)methyl)thio)thiazol-2-yl)-1-(2-(4-(2-(2,6-dimethoxy-4-(3-oxo-3-(6-oxo-3,6-dihydropyridin-1(2H)-yl)prop-1-en-1-yl)phenoxy)ethyl)piperazin-1-yl)-2-oxoethyl)piperidine-4-carboxamide]",CDK9 degradation and downregulation of c-Myc and MCL-1,CDK9 [1],dose-dependent manner; also recorded: potently degraded CDK9 and downregulated c-Myc and MCL-1
same,formation of the CDK9:KEAP1 ternary complex,[2],formed a stable ternary complex with CDK9 and KEAP1 in a dose-dependent manner
same,dependence of 955-induced CDK9 degradation on the UPS,"CDK9 [3]; 293T and K562 cells, MG132, bortezomib, MLN4924 pre-treatment",UPS dependent manner
same,CDK9 degradation in 293T cells,"CDK9 [3]; 293T cells, 0.1 μM or 1 μM 955",time and dose dependent manner
same,CDK9 degradation in K562 cells,"CDK9 [3]; K562 cells, 0.1 μM 955",time and dose dependent manner
same,induction of PARP cleavage / apoptotic cell death compared with SNS-032,PARP,more apoptotic cell death compared with SNS-032; also recorded: more potent in inducing PARP cleavage than SNS-032
